The values below come from ChEMBL document CHEMBL3580540, “N1-linked melatonin dimers as bivalent ligands targeting dimeric melatonin receptors” (Medchemcomm, 2014).

Each structure is given as a SMILES string.

Test system in one assay: not listed separately
Nature of the assay: Displacement of 2-[125I]-iodomelatonin from human MT1 receptor expressed in CHO cells by Gamma counting. It counts as cell-based.
Settings: not given
One may read the pKi as the negative decadic logarithm of the Ki, by convention in mol/L. Higher therefore signals a low Ki. Molecule `COc1ccc2c(c1)c(CCNC(C)=O)cn2CCCCC(=O)NCCCCCCCCCCCCNC(=O)CCCCn1cc(CCNC(C)=O)c2cc(OC)ccc21` returned a pKi of 6.08.
Still for that read-out and setting: the value for `CCCCCCNC(=O)CCCCn1cc(CCNC(C)=O)c2cc(OC)ccc21` was 5.79; that for `COc1ccc2c(c1)c(CCNC(C)=O)cn2CCCCC(=O)NCCCCCCNC(=O)CCCCn1cc(CCNC(C)=O)c2cc(OC)ccc21` was 5.64; that for `COc1ccc2c(c1)c(CCNC(C)=O)cn2CC(=O)NCCCCCCCCCCNC(=O)Cn1cc(CCNC(C)=O)c2cc(OC)ccc21` was 6.37.
`COc1ccc2c(c1)c(CCNC(C)=O)cn2CC(=O)NCCCCCCCCCCCCNC(=O)Cn1cc(CCNC(C)=O)c2cc(OC)ccc21` yielded a negative-log Ki (pKi) of 6.47.
On the same count and under the same terms, for `COc1ccc2c(c1)c(CCNC(C)=O)cn2CC(=O)NCCCCCCCCCCCNC(=O)Cn1cc(CCNC(C)=O)c2cc(OC)ccc21` the value was 5.12; for `COc1ccc2c(c1)c(CCNC(C)=O)cn2CC(=O)NCCCCCCCCCNC(=O)Cn1cc(CCNC(C)=O)c2cc(OC)ccc21`, 4.83; for `COc1ccc2c(c1)c(CCNC(C)=O)cn2CCCCC(=O)NCCCCCCCNC(=O)CCCCn1cc(CCNC(C)=O)c2cc(OC)ccc21`, 6.24.
Same read-out and setting: the value for `COc1ccc2c(c1)c(CCNC(C)=O)cn2CCCCC(=O)NCCCCCCCCCCCNC(=O)CCCCn1cc(CCNC(C)=O)c2cc(OC)ccc21` was 6.11.
Take `COc1ccc2c(c1)c(CCNC(C)=O)cn2CCCCC(=O)NCCCCCCCCCNC(=O)CCCCn1cc(CCNC(C)=O)c2cc(OC)ccc21`: the negative logarithm of the Ki (pKi) is recorded as 6.23.
Same read-out and setting: for `COc1ccc2c(c1)c(CCNC(C)=O)cn2CCCCC(=O)NCCCCCCCCNC(=O)CCCCn1cc(CCNC(C)=O)c2cc(OC)ccc21` the value was 6.17; for `COc1ccc2c(c1)c(CCNC(C)=O)cn2CCCCC(=O)NCCCCCCCCCCNC(=O)CCCCn1cc(CCNC(C)=O)c2cc(OC)ccc21`, 6.33.

Test system in a further assay: not listed separately
As to the kind of experiment: Displacement of 2-[125I]-iodomelatonin from human MT2 receptor expressed in CHO cells by Gamma counting.
Settings: not given
The format is cell-based.
Take `COc1ccc2c(c1)c(CCNC(C)=O)cn2CCCCC(=O)NCCCCCCCCCCCCNC(=O)CCCCn1cc(CCNC(C)=O)c2cc(OC)ccc21`: the pKi is 6.67.
On the same count and under the same terms, the value for `CCCCCCNC(=O)CCCCn1cc(CCNC(C)=O)c2cc(OC)ccc21` was 6.41.
Take `COc1ccc2c(c1)c(CCNC(C)=O)cn2CCCCC(=O)NCCCCCCNC(=O)CCCCn1cc(CCNC(C)=O)c2cc(OC)ccc21`: the pKi is 5.9.
On the same count and under the same terms, the value for `COc1ccc2c(c1)c(CCNC(C)=O)cn2CC(=O)NCCCCCCCCCCNC(=O)Cn1cc(CCNC(C)=O)c2cc(OC)ccc21` was 7.34; that for `COc1ccc2c(c1)c(CCNC(C)=O)cn2CC(=O)NCCCCCCCCCCCCNC(=O)Cn1cc(CCNC(C)=O)c2cc(OC)ccc21` was 7.02.
Turning to `COc1ccc2c(c1)c(CCNC(C)=O)cn2CC(=O)NCCCCCCCCCCCNC(=O)Cn1cc(CCNC(C)=O)c2cc(OC)ccc21`, the pKi is 6.53.
For the molecule `COc1ccc2c(c1)c(CCNC(C)=O)cn2CC(=O)NCCCCCCCCCNC(=O)Cn1cc(CCNC(C)=O)c2cc(OC)ccc21`, the pKi was 4.93.
In the case of `COc1ccc2c(c1)c(CCNC(C)=O)cn2CCCCC(=O)NCCCCCCCNC(=O)CCCCn1cc(CCNC(C)=O)c2cc(OC)ccc21`, the pKi was 5.93.
Molecule `COc1ccc2c(c1)c(CCNC(C)=O)cn2CCCCC(=O)NCCCCCCCCCCCNC(=O)CCCCn1cc(CCNC(C)=O)c2cc(OC)ccc21` displayed a pKi of 6.54.
On the same count and under the same terms, the value for `COc1ccc2c(c1)c(CCNC(C)=O)cn2CCCCC(=O)NCCCCCCCCCNC(=O)CCCCn1cc(CCNC(C)=O)c2cc(OC)ccc21` was 6.79.
Regarding `COc1ccc2c(c1)c(CCNC(C)=O)cn2CCCCC(=O)NCCCCCCCCNC(=O)CCCCn1cc(CCNC(C)=O)c2cc(OC)ccc21`, the pKi turned out to be 6.74.
In turn, `COc1ccc2c(c1)c(CCNC(C)=O)cn2CCCCC(=O)NCCCCCCCCCCNC(=O)CCCCn1cc(CCNC(C)=O)c2cc(OC)ccc21` registered a pKi of 6.62.

The test system of another assay is HEK-293T. As to the kind of experiment: Binding affinity to Rluc-tagged MT1/YFP-tagged MT1 (unknown origin) transfected in HEK293T cells assessed as bioluminescence resonance energy transfer ratio at 10 uM after 10 mins by lumino/fluorometer (reference value: 0.092 +/- 0.007). The format is cell-based. To be noted: Homo sapiens.
Consider `COc1ccc2c(c1)c(CCNC(C)=O)cn2CCCCC(=O)NCCCCCCCCCCCCNC(=O)CCCCn1cc(CCNC(C)=O)c2cc(OC)ccc21`, for which the Ratio came to 0.062.
Still for that read-out and setting: the value for `COc1ccc2c(c1)c(CCNC(C)=O)cn2CCCCC(=O)NCCCCCCCCCCCNC(=O)CCCCn1cc(CCNC(C)=O)c2cc(OC)ccc21` was 0.078; that for `COc1ccc2c(c1)c(CCNC(C)=O)cn2CCCCC(=O)NCCCCCCCCCCNC(=O)CCCCn1cc(CCNC(C)=O)c2cc(OC)ccc21` was 0.098.

The next assay relates to HEK-293T. As to the kind of experiment: Binding affinity to Rluc-tagged MT1/YFP-tagged MT2 (unknown origin) transfected in HEK293T cells assessed as bioluminescence resonance energy transfer ratio at 10 uM after 10 mins by lumino/fluorometer (reference value: 0.254 +/- 0.035). The format is cell-based. As to conditions: Homo sapiens.
As to `COc1ccc2c(c1)c(CCNC(C)=O)cn2CCCCC(=O)NCCCCCCCCCCCCNC(=O)CCCCn1cc(CCNC(C)=O)c2cc(OC)ccc21`, the Ratio is 0.2.
On the same count and under the same terms, the value for `COc1ccc2c(c1)c(CCNC(C)=O)cn2CCCCC(=O)NCCCCCCCCCCCNC(=O)CCCCn1cc(CCNC(C)=O)c2cc(OC)ccc21` was 0.217; that for `COc1ccc2c(c1)c(CCNC(C)=O)cn2CCCCC(=O)NCCCCCCCCCCNC(=O)CCCCn1cc(CCNC(C)=O)c2cc(OC)ccc21` was 0.223.

A further assay deals with HEK-293T. As to the kind of experiment: Binding affinity to Rluc-tagged MT2/YFP-tagged MT2 (unknown origin) transfected in HEK293T cells assessed as bioluminescence resonance energy transfer ratio at 10 uM after 10 mins by lumino/fluorometer (reference value: 1.468 +/- 0.560). It counts as cell-based. As to conditions: Homo sapiens.
Regarding `COc1ccc2c(c1)c(CCNC(C)=O)cn2CCCCC(=O)NCCCCCCCCCCCCNC(=O)CCCCn1cc(CCNC(C)=O)c2cc(OC)ccc21`, the Ratio was 1.15.
On the same count and under the same terms, the value for `COc1ccc2c(c1)c(CCNC(C)=O)cn2CCCCC(=O)NCCCCCCCCCCCNC(=O)CCCCn1cc(CCNC(C)=O)c2cc(OC)ccc21` was 0.901; that for `COc1ccc2c(c1)c(CCNC(C)=O)cn2CCCCC(=O)NCCCCCCCCCCNC(=O)CCCCn1cc(CCNC(C)=O)c2cc(OC)ccc21` was 1.39.

In a further assay the test system is HEK-293T. Nature of the assay: Binding affinity to Rluc-tagged MT2/YFP-tagged MT1 (unknown origin) transfected in HEK293T cells assessed as bioluminescence resonance energy transfer ratio at 10 uM after 10 mins by lumino/fluorometer (reference value: 2.300 +/- 0.777). It counts as cell-based. As to conditions: Homo sapiens.
As for `COc1ccc2c(c1)c(CCNC(C)=O)cn2CCCCC(=O)NCCCCCCCCCCCCNC(=O)CCCCn1cc(CCNC(C)=O)c2cc(OC)ccc21`, the Ratio was found to be 6.81.
On the same count and under the same terms, for `COc1ccc2c(c1)c(CCNC(C)=O)cn2CCCCC(=O)NCCCCCCCCCCCNC(=O)CCCCn1cc(CCNC(C)=O)c2cc(OC)ccc21` the value was 10.1.
Consider `COc1ccc2c(c1)c(CCNC(C)=O)cn2CCCCC(=O)NCCCCCCCCCCNC(=O)CCCCn1cc(CCNC(C)=O)c2cc(OC)ccc21`, for which the Ratio is 9.28.
